Here are results for one molecule from PMC7177888, “Aryl-4,5-dihydro-1H-pyrazole-1-carboxamide Derivatives Bearing a Sulfonamide Moiety Show Single-digit Nanomolar-to-Subnanomolar Inhibition Constants against the Tumor-associated Human Carbonic Anhydrases IX and XII” (International Journal of Molecular Sciences, 2020).

SMILES strings stand for the structures.

Common to all, as to test: stopped-flow CO2 hydrase assay
What all share (format): biochemical

One test has as its target T1, CA II (Homo sapiens, UniProt P00918).
T1 construct: gene CA2; recombinant, obtained in-house
The gist of the method: (§1)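 In-house recombinant human carbonic anhydrase isoforms were tested for CO2 hydration on an Applied Photophysics stopped-flow instrument, using 20 mM Hepes (pH 7.5), 20 mM Na2SO4 and 0.2 mM phenol red, with readings at 557 nm over 10–100 s and CO2 at 1.7–17 mM. Enzyme and inhibitor were preincubated for 15 min at room temperature, with dilutions made from 0.1 mM aqueous stocks down to 0.01 nM. Inhibition constants (Ki) were obtained by nonlinear least-squares fitting with the Cheng–Prusoff equation from initial rates corrected for the uncatalysed reaction. Each value is the mean of at least three determinations.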

In the next test the target is T2, CA IX (Homo sapiens, UniProt Q16790).
T2 construct: gene CA9; recombinant, obtained in-house
The settings on record: read-out: KI (nM) / CA IX. The method in brief:
as §1

The target of another test is T3, CA XII (Homo sapiens, UniProt O43570).
T3 construct: gene CA12; recombinant, obtained in-house
The method in brief:
as §1

The next test concerns the target T4, CA VII (Homo sapiens, UniProt P43166).
T4 construct: gene CA7; recombinant, obtained in-house
The gist of the method: as §1

A further test deals with T5, CA I (Homo sapiens, UniProt P00915).
T5 construct: gene CA1; recombinant, obtained in-house
The method in brief:
as §1

T4 sequence (P43166 whole entry): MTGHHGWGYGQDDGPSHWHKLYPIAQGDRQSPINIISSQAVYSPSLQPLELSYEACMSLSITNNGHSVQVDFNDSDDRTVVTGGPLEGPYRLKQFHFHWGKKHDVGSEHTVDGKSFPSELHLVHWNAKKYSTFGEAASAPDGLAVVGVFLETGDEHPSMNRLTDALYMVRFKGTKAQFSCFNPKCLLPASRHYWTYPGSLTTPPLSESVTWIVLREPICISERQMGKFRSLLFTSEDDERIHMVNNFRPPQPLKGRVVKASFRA
T5 sequence (P00915 2-261): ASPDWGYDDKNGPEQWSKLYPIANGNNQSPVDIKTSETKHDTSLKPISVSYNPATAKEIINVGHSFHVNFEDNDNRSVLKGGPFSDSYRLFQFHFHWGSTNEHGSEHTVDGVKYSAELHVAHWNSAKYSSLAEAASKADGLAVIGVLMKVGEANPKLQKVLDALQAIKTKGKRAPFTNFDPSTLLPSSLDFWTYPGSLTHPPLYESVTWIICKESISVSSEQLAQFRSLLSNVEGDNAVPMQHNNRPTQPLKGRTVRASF
T3 sequence (O43570 25-354): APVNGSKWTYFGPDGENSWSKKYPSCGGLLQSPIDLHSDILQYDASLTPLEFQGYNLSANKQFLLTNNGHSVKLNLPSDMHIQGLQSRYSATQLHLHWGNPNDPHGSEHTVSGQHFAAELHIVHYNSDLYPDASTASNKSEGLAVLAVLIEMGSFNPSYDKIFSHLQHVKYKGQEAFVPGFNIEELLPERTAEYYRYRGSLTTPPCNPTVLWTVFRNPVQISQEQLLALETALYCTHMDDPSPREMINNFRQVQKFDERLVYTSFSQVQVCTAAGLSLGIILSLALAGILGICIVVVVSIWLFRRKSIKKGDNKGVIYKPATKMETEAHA

On to `NS(=O)(=O)c1ccc(NC(=O)N2N=C(c3ccc(Cl)cc3)CC2c2c(F)cccc2Cl)cc1` (centres unmarked) [compound 19, 5-(2-Chloro-6-fluorophenyl)-3-(4-chlorophenyl)-N-(4-sulfamoylphenyl)-4,5-dihydro-1H-pyrazole-1-carboxamide], for which the Ki on CA II turned out to be 10.8 nM; at CA IX, 2.7 nM; on CA XII it was 6.8 nM; on CA VII, 2.3 nM; at CA I, 42.7 nM.
